Patent US7449466B2, “Cyclic aminophenyl sulfamate derivative” (Aska Pharmaceutical Co., Ltd., priority 2003, dated 2008)

Legend:
steroid sulfatase = biological target: T1, steroid sulfatase (Homo sapiens, UniProt P08842); assay: Steroid sulfatase inhibitory activity (in vitro), microsomal fraction of MCF-7 cells, [3H]estrone-3-sulfate hydrolysis; type: biochemical; set-up: microsomal fraction of MCF-7 human breast cancer cells was used; endogenous in cells; host or cells: MCF-7 human breast cancer cells (microsomal fraction); conditions: MCF-7 microsomal fraction, 37° C., 30 minutes
T1 sequence (P08842 22-583): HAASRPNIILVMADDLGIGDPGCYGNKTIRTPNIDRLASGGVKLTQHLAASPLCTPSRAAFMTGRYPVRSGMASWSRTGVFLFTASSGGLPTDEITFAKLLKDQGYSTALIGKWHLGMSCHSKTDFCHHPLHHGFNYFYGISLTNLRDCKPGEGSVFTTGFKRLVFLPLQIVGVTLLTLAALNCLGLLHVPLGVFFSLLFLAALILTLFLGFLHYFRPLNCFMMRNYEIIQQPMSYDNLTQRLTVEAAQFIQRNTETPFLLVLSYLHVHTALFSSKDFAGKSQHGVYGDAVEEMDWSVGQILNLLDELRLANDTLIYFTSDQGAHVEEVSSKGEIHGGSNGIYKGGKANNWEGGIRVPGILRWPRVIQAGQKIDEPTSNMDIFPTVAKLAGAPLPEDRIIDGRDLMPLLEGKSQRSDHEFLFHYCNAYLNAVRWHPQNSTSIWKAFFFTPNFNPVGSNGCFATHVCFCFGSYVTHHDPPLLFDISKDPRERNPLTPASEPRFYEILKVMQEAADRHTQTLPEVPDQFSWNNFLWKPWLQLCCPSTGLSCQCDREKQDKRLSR
Experimental: (1) Measurement of Steroid Sulfatase Inhibitory Activity (in vitro):
As the source of steroid sulfatase enzyme, microsomal fraction of MCF-7 human breast cancer cells was used.
To phosphate buffered saline (PBS), one of the test compounds, the microsomal fraction and 50 μL of 60 μM estrone-3-sulfate containing about 100 nCi of [6,7-^3H]estrone-3-sulfate (purchased from Perkin Elmer Life Sciences, Boston, Mass., USA; specific activity, 40-60 Ci/mmol) were added to make the total amount of the reaction system 150 μL, which was incubated at 37° C. for 30 minutes. After the incubation, 50 μL of PBS containing about 2 nCi of [4-^14C] estrone (purchased from Perkin Elmer Life Sciences, Boston, Mass., USA; specific activity 45-60 mCi/mmol) was added and stirred. Further 800 μL of toluene was added, and the whole system was thoroughly shaken for 30 seconds, followed by centrifugation at 2,000×g for 10 minutes to separate the acqueous phase from the organic phase. A part (400 μL) of the organic phase was taken and measured of its ^3H and ^14C contents with scintillation spectrometer.
The mass of hydrolyzed [6,7-^3H]estrone-3-sulfate was calculated from the count number of the obtained ^3H (as corrected regarding the amount of the used organic phase and the recovered amount of [4-^14C]estrone) and the specific activity of the substrate ([6,7-^3H]estrone-3-sulfate) to determine the steroid sulfatase inhibitory rate of each test compound.

[1] = test system: Salmonella typhimurium TA 100, TA 1535, TA 98 and TA 1537 strains and Escherichia coli WP 2 uvrA strains; assay: Reverse mutation test using bacteria (Ames test), with and without metabolic activation; type: cell-based; conditions: 10-5,000 μg/well; with and without Rat Liver S9mix
Experimental: (6) Reverse Mutation Test Using Bacteria (Ames Test) for Examining Presence of Gentic Toxicity:
Reverse mutation-inducing activity on bacteria of the test compounds was examined by reverse mutation test using bacteria (Mutat. Res., 113, 173-215). The test was conducted by plate incorporation method using Salmonella typhimurium TA 100, TA 1535, TA 98 and TA 1537 strains and Escherichia coli WP 2 uvrA strains as to both cases of not conducting metabolic activation and conducting metabolic activation. The dosages were set at six levels as 10, 50, 100, 500, 1000 and 5,000 μg/well.
Into a sterilized test tube, 0.1 mL of a test compound or a solvent, 0.5 mL of sodium-phosphate buffer (pH=7.4), 0.1 mL of a bacterial suspension and 2 mL of soft agar solution were added and mixed. Where metabolic activation was conducted, […] sodium-phosphate buffer (pH=7.4) was replaced with 0.5 mL of Rat Liver S9mix. The liquid mixture was superposed on the minimum glucose agar medium and after the superposed soft agar solution solidified, the system was cultured at 37° C. for 48 hours. At the end of the culture the number of colonies in which reverse mutation had been induced was visually counted with a colony counter. […]

MCF-7 cells = assay: MCF-7 cell proliferation measurement (MTT) for examining estrogenic activity; type: cell-based, human; conditions: 4 days, 570 nm
Experimental: (3) MCF-7 Cell Proliferation Measurement for Examining Estrogenic Activity:
Stimulation of MCF-7 cell proliferation induced by estrogenic activity of each test compound was measured.
MCF-7 cells were cultured in 10% fetal bovine serum (FBS)-containing RPMI 1640 medium which was free from Phenol Red, using a 75 cm^2 culture flask. Then the medium was changed to RPMI 1640 medium containing 10% of FBS from which emdogenous steroid had been eliminated by charcoal treatment but containing no Phenol Red. Renewing the medium every two days, the culture was continued for 4 days. By this step estrogen was removed from the MCF-7 cells.
The MCF-7 cells were seeded on 96-well plates, 2,000 cells per well, and cultured for 24 hours to immobilize the cells on the plate. After the cell immobilization, the medium in each well was changed to RPMI 1640 medium containing 10^−6M test compound and 10% of charcoal-treated FBS but containing no Phenol Red, and the culture was continued for further 4 days, during which the medium was changed every day to one newly prepared before the use. Also control wells to which no test compound was added were provided.
After the end of the culture, the cell proliferation was measured by MTT (3-(4,5-dimethylthiazol-2-yl)-2,5-diphenyl-2H-tetrazolium bromide; Sigma-Aldrich Japan Co.) method. That is, an MTT solution as dissolved in PBS at a concentration of 5 mg/mL was added to the 96-well plate accommodating the cells, at a rate of 10 μL/well, followed by 2 hours' incubation at 37° C. After the end of the incubation, the medium was removed and the formazan which was taken into the cells and changed was dissolved with 100 μL of dimethylsulfoxide. Absorbance of the formazan was measured at wavelength 570 nm, using a microplate reader, subtracting the 630 nm background.
As shown by the Table 3, absorbance values of the wells to which the test compounds were added were invariably less than 150% of the absorbance of the control well, and it was confirmed that the test compounds were free of estrogenic activity.

NS(=O)(=O)Oc1ccc(N2CCN(CCCC3CCCCC3)CC2)cc1F [Example 24, 4-[4-(3-cyclohexylpropyl)piperazin-1-yl]-2-fluorophenyl-O-sulfamate]
Inhibitory rate (%) (10^−6 M) (steroid sulfatase; 10^−6 M test compound): 88.8%
Inhibitory rate (%) (10^−7 M) (steroid sulfatase; 10^−7 M test compound): 31.1%
Ames test (reverse mutation inducing activity) [1]: negative
Absorbance relative to that of the control well (10^−6 M, %) (MCF-7 cells): 74.6%
